From article PMC10275482 (ACS Omega, 2023)
Where two headings read alike, the source gives them in different places.

Tests used:
SARS-CoV-2 [1] = conditions: cited from earlier work; for EC50: read-out: EC50 in Vero cells
SARS-Cov-2 PL^pro = SARS-Cov-2 PL^pro (Severe acute respiratory syndrome coronavirus 2, UniProt P0DTD1); assay: biochemical
[2] = tested on: SARS-CoV-2 (isolate USA WA1/2020); assay: microbe, parasite or virus in culture; assay type: cell-based; conditions: Severe acute respiratory syndrome coronavirus 2, Calu-3, 48 h, read-out: IC50 (infection)
SARS-CoV-2 [3] = conditions: Vero cells, cited from earlier work
in vitro = conditions: human
SARS-CoV-2 [4] = conditions: cited from earlier work
SARS-CoV-2 [5] = conditions: read-out: A549-ACE2 IC50; A549-ACE2 cells; cited from earlier work
PL^pro = conditions: read-out: PL^pro IC50; cited from earlier work
SARS-Cov-2 M^pro = SARS-Cov-2 M^pro (Severe acute respiratory syndrome coronavirus 2, UniProt P0DTD1); assay: biochemical

For CC(C)(C)NC(=O)N[C@H](C(=O)N1C[C@H]2[C@@H]([C@H]1C(=O)NC(CC1CCC1)C(=O)C(N)=O)C2(C)C)C(C)(C)C (some centres unmarked) [boceprevir], the EC50 (SARS-CoV-2 [1]) is given as 1.31 µM.
For COc1cc(Nc2c(C#N)cnc3cc(OCCCN4CCN(C)CC4)c(OC)cc23)c(Cl)cc1Cl [bosutinib], the IC50 (SARS-Cov-2 PL^pro) was 4.23 ± 0.28 µM, the IC50 [2] was 5.26 µM and the “cell toxicity in Calu-3 cells (in words)” value (Calu-3 cells) was “demonstrated cell toxicity”. For the same compound, the “SI (anti-SARS-CoV-2 entry activity)” value (SARS-CoV-2 [3]) was 7.08, the EC50 (SARS-CoV-2 [3]; read-out: anti-SARS-CoV-2 entry activity EC50) was 2.45 µM and the CC50 (in vitro) was 6.06 µM.
Compound C[N+](C)(C)CCOP(=O)(O)OP(=O)([O-])OC[C@H]1O[C@@H](n2ccc(N)nc2=O)[C@H](O)[C@@H]1O [citicoline] has an IC50 (SARS-Cov-2 PL^pro) of 1.35 ± 0.27 µM.
With C[C@@H](Oc1cc(-c2cnn(C3CCNCC3)c2)cnc1N)c1c(Cl)ccc(F)c1Cl [crizotinib] the IC50 (SARS-Cov-2 PL^pro) was 3.81 ± 0.04 µM, the IC50 [2] was 16.3 µM and the “cell toxicity in Calu-3 cells (in words)” value (Calu-3 cells) was “demonstrated cell toxicity”. For the same compound, the CC50 (in vitro) was 5.09 µM.
In the case of COc1cc2ncnc(Nc3ccc(F)c(Cl)c3)c2cc1NC(=O)/C=C/CN1CCCCC1 [dacomitinib], the IC50 (SARS-Cov-2 PL^pro) is given as 3.33 ± 0.06 µM and the IC50 (SARS-CoV-2 [4]; read-out: IC50 against SARS-CoV-2 in Calu-3 cells) is given as 0.04 µM.
For OCCN(CCO)c1nc(N2CCCCC2)c2nc(N(CCO)CCO)nc(N3CCCCC3)c2n1 [dipyridamole], the EC50 (SARS-CoV-2 [1]) is given as about 0.1 µM.
Compound CCCCCc1c2c(cc(O)c1C(=O)O)OC(=O)c1c(cc(OC)cc1C(=O)CCCC)O2 [lobaric acid] has an IC50 (SARS-Cov-2 PL^pro) of 10 ± 1.11 µM.
With C=CC(=O)Nc1cccc(Oc2nc(Nc3ccc(N4CCN(C)CC4)cc3)nc3ccsc23)c1 [olmutinib] the IC50 (SARS-Cov-2 PL^pro) was 0.54 ± 0.04 µM, the IC50 [2] was 9.76 µM and the “cell toxicity in Calu-3 cells (in words)” value (Calu-3 cells) was “demonstrated cell toxicity”. For the same compound, the CC50 (in vitro) was 12.5 µM.
In the case of COc1ccc2nc3cc(Cl)ccc3c(Nc3cc(CN4CCCC4)c(O)c(CN4CCCC4)c3)c2n1 [pyronaridine tetraphosphate], the IC50 (SARS-CoV-2 [5]) is given as 0.23 µM and the IC50 (PL^pro) is given as 1.8 µM.
In the case of O=C(c1ccc(OCCN2CCCCC2)cc1)c1c(-c2ccc(O)cc2)sc2cc(O)ccc12 [raloxifene], the IC50 (SARS-Cov-2 PL^pro) is given as 3.28 ± 0.29 µM, the IC50 (SARS-CoV-2 [1]; read-out: IC50 against SARS-CoV-2 in Vero cells) is given as 3.9 µM and the IC50 (SARS-CoV-2 [1]; read-out: IC50 in Vero, Vero cells) is given as 5.9 µM. The “SI in Calu-3 cells” value (SARS-CoV-2 [4]) was 2.7, the IC50 (SARS-CoV-2 [4]; read-out: IC50 in Calu-3 cells) was 9 µM and the IC50 (SARS-Cov-2 M^pro) was 42.8 ± 6.7 µM.
With CC1(C)CCC2=C(O1)c1ccccc1C(=O)C2=O [β-lapachone] the IC50 (SARS-Cov-2 PL^pro) was 5.3 ± 0.29 µM.
